Series [1] relates to Hepatitis C virus. In words: Inhibition of HCV genotype 1b patient isolate recombinant NS5B polymerase expressed in Escherichia coli DH5alpha assessed as inhibition of [3H]UTP incorporation after 2 hrs by scintillation counting. Set-up: species or system Hepatitis C virus subtype 1b.
Series [2] concerns Hepatitis C virus. In words: Antiviral activity against HCV genotype 1b infected in HuH7 cells by SEAP reporter gene assay. Format: functional, organism-based, Hepacivirus hominis. Conditions: Huh-7.
Series [3] in a line: Inhibition of HCV genotype 3a NS5B polymerase assessed as inhibition of [3H]UTP incorporation after 2 hrs by scintillation counting. Set-up: species or system Hepatitis C virus subtype 3a.
Series [4] in a line: Inhibition of HCV genotype 2a NS5B polymerase assessed as inhibition of [3H]UTP incorporation after 2 hrs by scintillation counting. Set-up: species or system Hepatitis C virus subtype 2a.
The nature of series [5]: Cytotoxicity against human HuH7 cells by MTT assay. Format: cell-based, Huh-7. The settings on record: read-out: TD50 (the source's name). (In general: Formazan colour is commonly taken as a measure of viable cells.)
Series [6] in a line: Inhibition of HCV genotype 1b BK recombinant NS5B polymerase expressed in Escherichia coli DH5alpha assessed as inhibition of [3H]UTP incorporation after 2 hrs by scintillation counting. Also on record: species or system Hepatitis C virus (isolate BK).
Series [7] has as its system Hepatitis C virus subtype 1a. In words: Resistance ratio of IC50 for HCV genotype 1a NS5B polymerase M423T mutant to IC50 for HCV genotype 1a wildtype NS5B polymerase.
For series [8], the system named is Hepatitis C virus subtype 1a. Description: Resistance ratio of IC50 for HCV genotype 1a NS5B polymerase P495A mutant to IC50 for HCV genotype 1a wildtype NS5B polymerase.
Series [9] is described as follows: Inhibition of HCV genotype 2b NS5B polymerase assessed as inhibition of [3H]UTP incorporation after 2 hrs by scintillation counting. Set-up: species or system Hepatitis C virus subtype 2b.
The test system of series [10] is Hepatitis C virus subtype 1a. In words: Resistance ratio of IC50 for HCV genotype 1a NS5B polymerase T448Y mutant to IC50 for HCV genotype 1a wildtype NS5B polymerase.
Series [11] has as its system Hepatitis C virus subtype 1a. Description: Resistance ratio of IC50 for HCV genotype 1a NS5B polymerase C316Y mutant to IC50 for HCV genotype 1a wildtype NS5B polymerase.
Series [12] is described as follows: Inhibition of HCV genotype 1a H77 recombinant NS5B polymerase expressed in Escherichia coli DH5alpha assessed as inhibition of [3H]UTP incorporation after 2 hrs by scintillation counting. Also on record: species or system Hepatitis C virus (isolate H77).
The test system of series [13] is Hepatitis C virus subtype 1a. In words: Resistance ratio of IC50 for HCV genotype 1a NS5B polymerase M414T mutant to IC50 for HCV genotype 1a wildtype NS5B polymerase.

Structures are written as SMILES. pEC50, pIC50: −log10 of the molar value. Where only a bound is given, the exact number is not on record here.

By pIC50 is commonly meant −log10 of the IC50, conventionally taken in molar units. For `COc1cc(NC(C)=O)c(N2CCC(=O)NC2=O)cc1C(C)(C)C`, the pIC50 in the series on Hepatitis C virus [1] is 5.19.

As usually defined, the pEC50 is the negative decadic logarithm of the EC50, by convention in mol/L. Low values mean a large EC50, high ones a small EC50. Turning to `COc1cc([N+](=O)[O-])c(N2CCC(=O)NC2=O)cc1C(C)(C)C`, in the series with Hepatitis C virus [2], the negative logarithm of the EC50 (pEC50) is 6.08. Further, the negative-log IC50 (pIC50) in series [3] is < 3.70; in series [4], < 3.70; in series [6] it was 6.44; in series [9] it was < 3.70; in series [12] it was 6.24; in the series on Hepatitis C virus [1], 6.40. Moreover, the CC50 in series [5] was > 50 µM. Moreover, the Ratio IC50 in series [7] was 5; in [8], 5; in series [10] it was 41; in [11], > 100; in series [13], 24.

As to `CC(C)(C)c1cccc(N2CCC(=O)NC2=O)c1`, in the series on Hepatitis C virus [1], the pIC50 is 4.33.

With `O=C1CCN(c2cccc(C(F)(F)F)c2)C(=O)N1`, in the series on Hepatitis C virus [1], the pIC50 was < 3.70.

For the molecule `CC(C)(C)c1cc(N2CCC(=O)NC2=O)ccc1O`, the negative-log IC50 (pIC50) with Hepatitis C virus [1] is 5.12.

As to `COc1cc(N(C)C)c(N2CCC(=O)NC2=O)cc1C(C)(C)C`, the negative-log IC50 (pIC50) in the series with Hepatitis C virus [1] is 5.17.

With `COc1ccc(N2CCC(=O)NC2=O)cc1C(C)(C)C`, in the series with Hepatitis C virus [1], the negative-log IC50 (pIC50) was 5.19.

Take `COc1cc(N)c(N2CCC(=O)NC2=O)cc1C(C)(C)C`: the negative logarithm of the IC50 (pIC50) in the series on Hepatitis C virus [1] was 5.77.

Turning to `COc1c(Br)cc(N2CCC(=O)NC2=O)cc1C(C)(C)C`, the pIC50 in the series on Hepatitis C virus [1] was 5.13.

`COc1c(Br)cc(N2CCC(=O)N(C)C2=O)cc1C(C)(C)C`: the negative logarithm of the IC50 (pIC50) in the series with Hepatitis C virus [1] was < 3.70.

The values above are taken from ChEMBL document CHEMBL2029307, “Identification of aryl dihydrouracil derivatives as palm initiation site inhibitors of HCV NS5B polymerase” (Bioorg Med Chem Lett, 2012).
